Measurements: patent US6730672B2, “Aminoheterocyclic derivatives as antithrombotic or anticoagulant agents” (Zeneca Limited, priority 1994, dated 2004)

Assays:
human blood plasma [1] = assay: Measurement of Anticoagulant Activity in vitro, activated partial thromboplastin time (APTT) test; format: biochemical; conditions: test c)
Experimental: (§1) c) Measurement of Anticoagulant Activity
(§2) An in vitro assay whereby human venous blood was collected and added directly to a sodium citrate solution (3.2 g/100 ml, 9 parts blood to 1 part citrate solution). Blood plasma was prepared by contrifugation (1000 g, 15 minutes) and stored at 2-4° C. Conventional activated partial thromboplastin time (APTT) and prothrombin time (PT) tests were carried out in the presence of various concentrations of a test compound and the concentration of test compound required to double the clotting time, hereinafter referred to as CT2, was determined. In the APTT test, the test compound, blood plasma and APTT reagent were incubated at 37° C. for 3 minutes. Calcium chloride (0.02M) was added and fibrin formation and the time required for a clot to form were determined. In the PT test, an analogous procedure was followed except that tissue thromboplastin was used in place of APTT reagent.

[2] = system: Alderley Park Wistar rats; assay: In vivo Measurement of Antithrombotic Activity (thromboplastin/stasis-induced vena cava thrombus); conditions: test e), rat, 5 mg/kg dose
Experimental: e) An in vivo Measurement of Antithrombotic Activity
Thrombus formation was induced using an analogous method to that described by Vogel et al., Thromb. Research, 1989, 54, 399-410. A group of Alderley Park Wistar rats was anaesthetised and surgery was performed to expose the vena cava. […] Test compound was administered intravenously or orally. At an appropriate time thereafter tissue thromboplastin (1 ml/kg) was administered into the jugular vein and, after 10 seconds, the two sutures were tightened to induce stasis within the ligated portion of vena cava. After 10 minutes the ligated tissue was excised and the thrombus therein was isolated, blotted and weighed.

human blood plasma [3] = assay: Measurement of Anticoagulant Activity in vitro, prothrombin time (PT) test; format: biochemical; conditions: test c)
Experimental: as §1, §2

human Factor Xa = human Factor Xa (Homo sapiens, UniProt P00742); assay: Measurement of Factor Xa Inhibition (chromogenic substrate S-2765); format: biochemical; conditions: test a), pH7.5, 37° C., read-out: IC50 against Factor Xa
Chain of human Factor Xa (P00742 235-488 limits assumed): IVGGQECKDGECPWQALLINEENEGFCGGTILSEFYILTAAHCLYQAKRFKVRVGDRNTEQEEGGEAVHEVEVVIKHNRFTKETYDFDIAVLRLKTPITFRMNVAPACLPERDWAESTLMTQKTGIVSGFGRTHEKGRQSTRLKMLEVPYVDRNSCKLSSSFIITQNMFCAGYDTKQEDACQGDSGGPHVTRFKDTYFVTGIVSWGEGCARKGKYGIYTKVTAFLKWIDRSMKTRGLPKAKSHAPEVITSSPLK
Chain of human Factor Xa (P00742 41-179 partner limits assumed): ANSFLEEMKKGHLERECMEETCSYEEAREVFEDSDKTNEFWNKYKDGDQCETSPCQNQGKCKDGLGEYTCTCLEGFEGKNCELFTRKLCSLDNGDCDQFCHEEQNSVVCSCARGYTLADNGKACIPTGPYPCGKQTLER
Experimental: a) Measurement of Factor Xa Inhibition
An in vitro assay system was carried out based on the method of Kettner et al., J. Biol. Chem., 1990, 265, 18289-18297, whereby various concentrations of a test compound were dissolved in a pH7.5 buffer containing 0.5% of polyethylene glycol and incubated at 37° C. with human Factor Xa (0.001 Units/ml, 0.3 ml) for 15 minutes. The chromogenic substrate S-2765 (KabiVitum AB, 20 μM) was added and the mixture was incubated at 37° C. for 20 minutes whilst the absorbance at 405 nm was measured. The maximum reaction velocity (Vmax) was determined and compared with that of a control sample containing no test compound. Inhibitor potency was expressed as an IC50 value.

[4] = system: Alderley Park Wistar rats; assay: Ex vivo Assay of Anticoagulant Activity (APTT and PT coagulation assays after dosing); format: in vivo; conditions: test d), rat
Experimental: d) An ex vivo Assay of Anticoagulant Activity
The test compound was administered intravenously or orally to a group of Alderley Park Wistar rats. At various times thereafter animals were anaesthetised, blood was collected and APTT and PT coagulation assays analogous to those described hereinbefore were conducted.

human thrombin = human thrombin (Homo sapiens, UniProt P00734); assay: Measurement of Thrombin Inhibition (chromogenic substrate S-2238); format: biochemical; conditions: test b), read-out: IC50 against thrombin
From the text: b) Measurement of Thrombin Inhibition
The procedure of method a) was repeated except that human thrombin (0.005 Units/ml) and the chromogenic substrate S-2238 (KabiVitum AB) were employed.

SMILES | CT2 (APTT), concentration required to double the clotting time (human blood plasma [1]) [µM] | thrombus weight following intravenous administration [2] | CT2 (PT), concentration required to double the clotting time (human blood plasma [3]) [µM] | IC50 (human Factor Xa) [nM] | clotting time following intravenous administration ([4]; 10 mg/kg dose) | IC50 (human thrombin) [nM] | clotting time following intravenous administration ([4]; 5 mg/kg dose) | melting point
O=C(CNS(=O)(=O)c1ccc2ccccc2c1)NC(CNC(=O)C1CCN(c2ccncc2)CC1)C(=O)N1CCCCC1 (centres unmarked) [Example 1, 2-(2-naphthalenesulphonamido)-N-{1-piperidinocarbonyl-2-[1-(4-pyridyl)-piperidin-4-ylcarbonylamino]ethyl}acetamide] | 62 | reduced thrombus weight | 14 | 300 | increased clotting time | > 100000 | – | –
O=C(C1CCN(c2ccncc2)CC1)N1CCN(S(=O)(=O)/C=C/c2ccc(Cl)cc2)CC1 [Example 39, Compound No. 2, 1-[(E)-4-chlorostyrylsulphonyl]-4-[-1-(4-pyridyl)piperidin-4-ylcarbonyl]piperazine] | 1.8 | reduced thrombus weight | 1 | 12 | – | > 100000 | increased clotting time | –
O=C(C1CCN(c2ccncc2)CC1)N1CCN(S(=O)(=O)c2ccc3cc(Cl)ccc3c2)CC1 [Example 40, Compound No. 5, 1-(6-chloronaphth-2-ylsulphonyl)-4-[1-(4-pyridyl)piperidin-4-ylcarbonyl]piperazine] | 1.2 | – | 0.5 | 3 | – | 34000 | increased clotting time | –
O=C(C1CCN(c2ccncc2)CC1)N1CCN(S(=O)(=O)c2ccc(-c3ccc(Cl)cc3)cc2)CC1 [Example 41, Compound No. 3, 1-(4′-chloro-4-biphenylylsulphonyl)-4-[1-(4-pyridyl)-piperidin-4-ylcarbonyl]piperazine] | – | – | – | 10 | – | 83000 | – | –
CCOC(=O)C1CN(S(=O)(=O)c2ccc3cc(Cl)ccc3c2)CCN1C(=O)C1CCN(c2ccncc2)CC1 (centres unmarked) [Example 62, 4-(6-chloronaphth-2-ylsulphonyl)-2-ethoxycarbonyl-1-[1-(4-pyridyl)-piperidin-4-ylcarbonyl]piperazine] | – | – | 0.7 | 2 | – | > 10000 | increased clotting time | –
O=C(O)C1CN(S(=O)(=O)c2ccc3cc(Cl)ccc3c2)CCN1C(=O)C1CCN(c2ccncc2)CC1 (centres unmarked) [Example 63, 2-carboxy-4-(6-chloronaphth-2-ylsulphonyl)-1-[1-(4-pyridyl)piperidin-4-ylcarbonyl]-piperazine] | – | reduced thrombus weight | 4.6 | 8 | – | > 10000 | increased clotting time | 215 to 220 °C (dec.)
